We go through three molecules from patent US20120302530A1, “23-HYDROXY-BETULINIC ACID DERIVATIVES, PREPARATION METHODS AND USES THEREOF” (priority 2009, published 2012).

For one series, the system named is MCF-7. The series is described as follows: MTT cytotoxicity, human tumor cell strain. Type of series: cell-based. As to conditions: MCF7, MCF-7, Mammary Gland, 72 hours. The source says:
We use human tumor cell lines to conduct cytotoxicity analysis. Thirty-one (31) kinds of human tumor cell strains are cultivated in the normal culture medium containing various compounds of zhangnan-5, zhangnan-7 and zhangnan-8. The human tumor lines are bought from ATCC and NCI, and is cultivated with DMEM culture solution containing 10% FBS in 370C couveuse containing 5% CO2. The merged cells are digested by trypsinase, and are counted after washed by the culture solution. 3000˜6000 cells are added into each hole of the 96-hole culture plate, and are hatched for 16 hours or 24 hours. Then, compounds zhangnan-5, zhangnan-7 and zhangnan-8 with different concentrations are added into the holes. Upon further cultivated for another 72 hours, MTT tests are conducted to cells in group treated with drugs and the control group cells, to determine the survival condition of the cells.

Series [1] relates to normal mice fibroblast (MEF). The series is described as follows: MTT cytotoxicity, normal cell strain. Type of series: cell-based, mouse. As to conditions: for EC50: Normal Mouse Fibroblast, 72 hours, MTT; for sensitivity of normal cells to the compounds: concentration up to 30 μm, cells can still grow well.
The test system of series [2] is C8166 (human T cell line). Put plainly: Toxicity to C8166 cells (MTT, day 7). The series is classed as cell-based. As to conditions: Homo sapiens, read-out: IC50 (50% inhibition concentration) to C8166 cell. The protocol: (§1) (2) Toxicity of compounds zhangnan-5, zhangnan-7 and zhangnan-8 to C8166 and PBMC cells:
(§2) C8166 (human T cell line) and PBM (using lymphocyte isolation liquid to separate from normal human peripheral blood, and adhered mononuclear cell separated from PBMC) cells in exponential phase are taken. The cells are resuspended after centrifugal (1000 r•min-1, 10 min), and the concentrations are adjusted to 4×10^5/ml and 2×10^6/ml. The test samples are double diluted on the 96-hole cell culture plate. In total 6 gradients are set, each having 3 duplicate holes. In addition, positive control group and cell control group are set. Upon adding cell suspended liquid, the test samples are placed in incubator of 370C and 5% CO2 for incubation. On the seventh (7th) day, MTT method is used to determine toxicity of the samples to cells.
(§3) Inhibition ratio of cell growth (%)=(1−experimental hole OD value/control hole (OD value)×100%

The nature of series [3]: Pharmacokinetics of zhangnan-5 in mice. Type of series: in vivo. As to conditions: both sexes, BlebC, mouse, oral, 100 mg/kg single dose, plasma, average +/− standard deviation. The protocol:
(5) Pharmacokinetics research of the compound zhangnan-5 in mice body: (see Singh S S, Shah H, Gupta S, Jain M, Sharma K, Thakkar P, Shah R. Liquid chromatography—electrospray ionisation mass spectrometry method for the determination of escitalopram in human plasma and its application in bioequivalence study. J Chromatogr B Analyt Technol Biomed Life Sci. 2004 Nov. 25; 811 (2):209-15).
Four 8-week old BlebC mice (two male and two female) are used, feeding with the compound zhangnan-5 of 100 mg/kg for single dose. At 0.5, 1, 3, 6, 12, 24, 48, and 72 hours upon mouth feeding the drug, blood is collected via vena ophthalmica and blood plasma is made, to determine the plasma concentration of the given compound zhangnan-5.

Another series relates to HIV-1Ada-M. Put plainly: ELISA of HIV-1Ada-M p24 antigen expression in PBMC. Type of series: cell-based. As to conditions: for therapeutic index TI: HIV-1Ada-M p24, PBMC, TI=IC50/EC50; for EC50: Human immunodeficiency virus 1, HIV-1Ada-M, PBMC, 7th day, ELISA, read-out: EC50, inhibition of p24 antigen expression. An excerpt:
(4) Quantitative Enzyme Linked Immunoadsorbent method (EIISA) detecting inhibiting effects of compounds to virus HIV-1Ada-Mp24 expression: (see JIANG, Haiou; WANG, Xu; L I, Rurun; CHEN, Dagang; B I, Kunlong, Experimental Research on Recipe Sanhuangsan Capsule Resisting AIDS Virus in Vitro, [J], Shandong Journal of Traditional Chinese medicine, 2005.8 (1):21-26).
Multi-heads sample injector is used to conduct triple dilution to the sample on the 96-hole culture plate. There are 6 dilutions, in which each dilution has 3 duplicate holes, and each hole is 100 ul. […] On the 96-hole flat culture plate, each hole is added with 25 ul virus stock solution containing 1000˜5000 pg/well P24 antigen, which is sufficiently blended. 75 ul mononuclear cell PBMC suspension liquid is added (3×10^5 cell numbers/hole). Upon placing in incubator of 37° C., 5% CO2 to the third day, 100 ul of culture medium is added to each hole. On the 7th day, cell culture supernatant is collected for p24 antigen test. According to p24 kit description, ELISA method is used to measure the virus HIV-1 p24 antigen concentration of each sample cell culture hole supernatant. The following formula is used to calculate the inhibition ratio of sample to virus.
Inhibition ratio of sample to virus p24 antigen (%)=(1−experimental hole OD value/cell+virus control hole OD value)×100%. Reed and Mueneh method is used to calculate EC50 of the test sample, and to further calculate the therapeutic index (TI) (TI=IC50/EC50). […] The positive control SCH-C, 23-hydroxyl-betulinic acid, compounds zhangnan-5, zhangnan-7 and zhangnan-8 all reach an inhibition ratio above 50% within the tested range. The positive control SCH-C inhibits HIV-1Ada-M p24 antigen expression. […] In addition, the inhibition effect to HIV-1Ada-M has significant dose-effect relationship with its concentration.
(In general: ELISA stands for enzyme-linked immunosorbent assay.)

The nature of series [4]: Acute toxicity of zhangnan-5 to mice upon feeding. The series is classed as in vivo, BlebC mice. The source says: (6) Research on the acute toxicity of compound zhangnan-5 to mice upon feeding the drug: (see Gol'dberg L E, Stepanova E S, Vertogradova T P, Shevniuk L A, Shepelevtseva G. Preclinical toxicological study of the new antibiotic eremomycin. Its acute toxicity for laboratory animals, Antibiot Med Biotekhnol. 1987, 32 (12): 910-5).
Two groups of 8-week old BlebC mice are taken, and each group has 10 mice (five male and five female). The mice are fed with the compound zhangnan-5 (prepared with corn oil or carrier) in single dose 500 mg/kg and in multi-dose 200 mg/kg (QDX15), respectively. Then, observation is made to the mice for 1 week and 4 week, respectively. The mice are weighted every other day. When the test is over, the tested mice are killed for pathological analysis. […] Thus, the compound zhangnan-5 has great potential to be developed as a new antineoplastic drug of wide spectrum. The compound zhangnan-5 can be used as drug substance of anti-tumor drugs, preferably used as drug substance of anti-malignant solid tumor drugs. The compound zhangnan-5 can also be used with drug carrier and/or excipient to make anti-tumor drug. The drug carrier and/or excipient can be, for example, corn oil, sodium carboxymethylcellulose, and the like.

In the next series the test system is normal person PBMC. The series is described as follows: Toxicity to PBMC cells (MTT, day 7). The series is classed as cell-based, human. As to conditions: Homo sapiens, 168 h, day 7, MTT. The protocol:
as §1, §2, §3

Series [5] concerns normal human epithelium of mammary gland (MCF-10a). The series is described as follows: MTT cytotoxicity, normal cell strain. The series is classed as cell-based. As to conditions: for EC50: Homo sapiens, Normal Mammary Gland Epithelial Cell, 72 hours, MTT; for sensitivity of normal cells to the compounds: concentration up to 30 μm, cells can still grow well.

Like-named read-outs stand apart in the source and are kept apart here.

One may read the EC50 as the concentration that produces a half-maximal response. The Cmax is the highest concentration seen after dosing. As a reminder, the Tmax is the time from dosing to the highest level. Turning to `C=C(C)C1CCC2(C(=O)O)CCC3(C)C(CCC4C5(C)CCC(=O)C(C)(CO)C5CCC43C)C12` (stereo not drawn) [zhangnan-5], the EC50 in the series with MCF-7 was 0.58 µM; in series [1], over 30 µM; in the series with HIV-1Ada-M, 0.7 ± 0.19 µM; in series [5], over 30 µM. For the same molecule, the “sensitivity of normal cells to the compounds” value (from here on “sensitivity of normal cells”) in series [1] and in series [5] was “not sensitive” each time. Moreover, the IC50 in series [2] (C8166, 168 h) was 2.3 ± 0.47 µM; in the series on normal person PBMC, 2.4 ± 0.38 µM. In series [3], the Cmax was 65 µM. The Tmax in series [3] was 1.42 h. For the same molecule, the half-life in series [3] (read-out: T½ (converted)) was 11.5 h. The “therapeutic index TI” value in the series on HIV-1Ada-M came to 3.4. Also, the “toxicity, multi-dose” value in series [4] (fed, multi-dose 200 mg/kg (QDX15), observed 4 week) is given as “no toxicity is observed”. Further, the acute toxicity result in series [4] (fed, single dose 500 mg/kg, observed 1 week) was “no toxicity is observed”. Moreover, the mortality entry in series [4] (single dose 500 mg/kg and multi-dose 200 mg/kg (QDX15)) was “no single death”.
Take `CC(C)C1CCC2(C(=O)O)CCC3(C)C(CCC4C5(C)CCC(=O)C(C)(CO)C5CCC43C)C12` (stereo not drawn) [zhangnan-7]: the EC50 in the series on MCF-7 was 16.9 µM; in series [1] it was over 30 µM; with HIV-1Ada-M it was 0.0026 ± 0.0005 µM; in series [5], over 30 µM. Also, the “sensitivity of normal cells” value in series [1] and in series [5] was “not sensitive” throughout. The IC50 in series [2] (168 h, C8166, day 7, MTT) was 25 ± 5.2 µM; in the series on normal person PBMC, 25.8 ± 4.9 µM. For the same molecule, in the series with HIV-1Ada-M, the “therapeutic index TI” value is 9923.
Turning to `CC(C)C1CCC2(C(=O)O)CCC3(C)C(CCC4C5(C)CCC(O)C(C)(CO)C5CCC43C)C12` (stereo not drawn) [zhangnan-8, 23-hydroxyl-dihydrobetulinic acid], the EC50 is 7.8 µM in the series on MCF-7, over 30 µM in series [1], 1.6 ± 0.23 µM in the series on HIV-1Ada-M and over 30 µM in series [5]. Further, the “sensitivity of normal cells” value in series [1] and in series [5] was “not sensitive” each time. Moreover, the IC50 was 10.3 ± 2.9 µM in series [2] (168 h, C8166, day 7, MTT) and 11.6 ± 3.5 µM in the series on normal person PBMC. Further, in the series with HIV-1Ada-M, the “therapeutic index TI” value is listed as 7.3.
